Read-outs that look alike come from different tables or passages of the source.
Columns and labels:
[1] = biological target: T1, AEA-DA lipid probe targets in Neuro2a cells (Mus musculus, UniProt O35114)
T1 sequence (O35114 1-478): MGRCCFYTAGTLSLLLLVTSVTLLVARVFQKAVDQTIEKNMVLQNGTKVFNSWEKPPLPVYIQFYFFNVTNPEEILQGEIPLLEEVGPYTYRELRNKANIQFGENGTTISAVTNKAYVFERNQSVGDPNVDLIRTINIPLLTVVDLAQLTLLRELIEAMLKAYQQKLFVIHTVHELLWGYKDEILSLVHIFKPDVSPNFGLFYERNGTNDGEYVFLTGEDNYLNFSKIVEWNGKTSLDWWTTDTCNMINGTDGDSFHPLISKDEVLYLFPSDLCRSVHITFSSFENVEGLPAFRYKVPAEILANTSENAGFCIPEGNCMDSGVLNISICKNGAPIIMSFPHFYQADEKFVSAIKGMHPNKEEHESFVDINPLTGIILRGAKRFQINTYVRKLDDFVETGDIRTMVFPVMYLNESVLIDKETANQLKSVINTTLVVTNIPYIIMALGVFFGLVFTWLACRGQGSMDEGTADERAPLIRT

[2] = biological target: AEA-DA lipid probe targets in Neuro2a cells (Mus musculus, UniProt P20152)
[3] = biological target: AEA-DA lipid probe targets in Neuro2a cells (Mus musculus, UniProt P29391)
[4] = biological target: AEA-DA lipid probe targets in Neuro2a cells (Mus musculus, UniProt P62821)
[5] = biological target: AEA-DA lipid probe targets in Neuro2a cells (Mus musculus, UniProt Q60716)
[6] = biological target: AEA-DA lipid probe targets in Neuro2a cells (Mus musculus, UniProt Q791T5)
[7] = biological target: AEA-DA lipid probe targets in Neuro2a cells (Mus musculus, UniProt Q8BK63)
[8] = biological target: AEA-DA lipid probe targets in Neuro2a cells (Mus musculus, UniProt Q8BMS1)
[9] = biological target: T2, AEA-DA lipid probe targets in Neuro2a cells (Mus musculus, UniProt Q8BP40)
T2 sequence (Q8BP40 26-418): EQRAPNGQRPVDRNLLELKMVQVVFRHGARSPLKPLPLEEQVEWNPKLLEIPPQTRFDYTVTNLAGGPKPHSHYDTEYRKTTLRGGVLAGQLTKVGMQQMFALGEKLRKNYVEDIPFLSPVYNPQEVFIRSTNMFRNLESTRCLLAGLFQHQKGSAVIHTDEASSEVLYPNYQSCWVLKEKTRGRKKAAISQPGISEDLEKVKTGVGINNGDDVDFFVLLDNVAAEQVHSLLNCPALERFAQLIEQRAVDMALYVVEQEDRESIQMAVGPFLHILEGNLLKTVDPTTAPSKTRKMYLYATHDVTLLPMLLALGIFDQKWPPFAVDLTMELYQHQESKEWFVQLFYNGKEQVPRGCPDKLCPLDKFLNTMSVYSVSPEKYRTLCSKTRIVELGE

[10] = biological target: T3, AEA-DA lipid probe targets in Neuro2a cells (Mus musculus, UniProt Q8BXV2)
T3 sequence (Q8BXV2 1-253): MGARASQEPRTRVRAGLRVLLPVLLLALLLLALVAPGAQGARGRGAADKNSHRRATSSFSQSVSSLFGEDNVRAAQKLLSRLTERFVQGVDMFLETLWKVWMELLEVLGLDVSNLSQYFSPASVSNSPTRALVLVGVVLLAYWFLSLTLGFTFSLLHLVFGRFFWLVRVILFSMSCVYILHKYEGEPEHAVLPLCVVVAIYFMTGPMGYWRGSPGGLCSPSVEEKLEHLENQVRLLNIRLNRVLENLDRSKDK

[11] = biological target: T4, AEA-DA lipid probe targets in Neuro2a cells (Mus musculus, UniProt Q8JZN5)
T4 sequence (Q8JZN5 42-625): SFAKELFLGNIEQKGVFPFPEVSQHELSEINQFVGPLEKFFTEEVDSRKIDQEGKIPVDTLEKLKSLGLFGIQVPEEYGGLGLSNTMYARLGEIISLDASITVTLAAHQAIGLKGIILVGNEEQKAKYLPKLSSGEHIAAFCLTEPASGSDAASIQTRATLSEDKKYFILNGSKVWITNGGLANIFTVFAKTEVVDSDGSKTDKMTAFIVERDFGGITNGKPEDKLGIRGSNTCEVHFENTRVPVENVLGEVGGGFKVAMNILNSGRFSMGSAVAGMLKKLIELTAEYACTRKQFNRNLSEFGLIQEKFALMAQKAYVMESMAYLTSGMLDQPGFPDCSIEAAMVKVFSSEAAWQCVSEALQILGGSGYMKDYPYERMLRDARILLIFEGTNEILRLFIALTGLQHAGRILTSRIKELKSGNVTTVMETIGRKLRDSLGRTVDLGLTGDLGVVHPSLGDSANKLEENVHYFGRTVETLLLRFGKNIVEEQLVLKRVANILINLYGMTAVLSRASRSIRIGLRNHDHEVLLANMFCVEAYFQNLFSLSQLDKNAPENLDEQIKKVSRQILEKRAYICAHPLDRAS

[12] = biological target: AEA-DA lipid probe targets in Neuro2a cells (Mus musculus, UniProt Q9D8N0)
[13] = biological target: T5, AEA-DA lipid probe targets in Neuro2a cells (Mus musculus, UniProt Q9D938)
T5 sequence (Q9D938 97-188): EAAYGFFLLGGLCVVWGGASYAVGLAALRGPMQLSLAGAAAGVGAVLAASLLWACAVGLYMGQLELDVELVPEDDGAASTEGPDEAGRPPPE

Sequence of AEA-DA lipid probe targets in Neuro2a cells (Mus musculus, UniProt Q8BMS1) (Q8BMS1 37-763): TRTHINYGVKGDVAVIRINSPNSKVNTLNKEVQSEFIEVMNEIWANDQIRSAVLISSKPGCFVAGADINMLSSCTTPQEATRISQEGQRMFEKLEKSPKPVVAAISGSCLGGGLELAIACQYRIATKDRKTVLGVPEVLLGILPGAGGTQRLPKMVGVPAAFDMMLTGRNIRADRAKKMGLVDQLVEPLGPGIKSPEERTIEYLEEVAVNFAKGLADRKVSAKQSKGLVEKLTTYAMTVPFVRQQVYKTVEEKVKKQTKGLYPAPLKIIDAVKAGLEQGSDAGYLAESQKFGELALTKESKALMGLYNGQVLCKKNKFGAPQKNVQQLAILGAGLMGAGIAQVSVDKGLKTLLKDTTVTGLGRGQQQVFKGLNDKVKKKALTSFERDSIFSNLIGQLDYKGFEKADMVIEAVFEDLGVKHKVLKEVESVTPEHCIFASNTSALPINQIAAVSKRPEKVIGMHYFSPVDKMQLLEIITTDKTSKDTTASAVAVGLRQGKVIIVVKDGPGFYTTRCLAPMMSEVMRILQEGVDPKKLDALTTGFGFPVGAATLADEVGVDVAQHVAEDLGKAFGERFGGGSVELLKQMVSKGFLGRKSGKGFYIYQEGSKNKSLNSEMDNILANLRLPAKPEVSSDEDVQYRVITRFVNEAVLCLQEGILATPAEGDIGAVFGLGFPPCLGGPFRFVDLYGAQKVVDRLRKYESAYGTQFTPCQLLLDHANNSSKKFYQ
Sequence of AEA-DA lipid probe targets in Neuro2a cells (Mus musculus, UniProt Q8BK63) (Q8BK63 whole entry): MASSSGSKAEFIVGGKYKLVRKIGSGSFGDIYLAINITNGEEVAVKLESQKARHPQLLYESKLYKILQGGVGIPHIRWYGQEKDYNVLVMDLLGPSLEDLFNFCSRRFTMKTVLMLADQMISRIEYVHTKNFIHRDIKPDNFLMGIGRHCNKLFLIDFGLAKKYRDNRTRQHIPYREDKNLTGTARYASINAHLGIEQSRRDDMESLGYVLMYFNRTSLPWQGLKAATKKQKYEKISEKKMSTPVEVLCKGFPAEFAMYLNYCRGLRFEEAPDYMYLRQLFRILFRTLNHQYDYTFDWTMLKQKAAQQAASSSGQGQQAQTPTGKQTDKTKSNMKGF
Sequence of AEA-DA lipid probe targets in Neuro2a cells (Mus musculus, UniProt P29391) (P29391 whole entry): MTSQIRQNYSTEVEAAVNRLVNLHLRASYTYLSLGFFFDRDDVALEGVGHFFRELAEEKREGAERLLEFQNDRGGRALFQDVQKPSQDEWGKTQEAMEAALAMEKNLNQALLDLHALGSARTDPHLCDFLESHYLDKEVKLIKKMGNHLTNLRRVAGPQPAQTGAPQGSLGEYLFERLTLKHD
Sequence of AEA-DA lipid probe targets in Neuro2a cells (Mus musculus, UniProt P20152) (P20152 whole entry): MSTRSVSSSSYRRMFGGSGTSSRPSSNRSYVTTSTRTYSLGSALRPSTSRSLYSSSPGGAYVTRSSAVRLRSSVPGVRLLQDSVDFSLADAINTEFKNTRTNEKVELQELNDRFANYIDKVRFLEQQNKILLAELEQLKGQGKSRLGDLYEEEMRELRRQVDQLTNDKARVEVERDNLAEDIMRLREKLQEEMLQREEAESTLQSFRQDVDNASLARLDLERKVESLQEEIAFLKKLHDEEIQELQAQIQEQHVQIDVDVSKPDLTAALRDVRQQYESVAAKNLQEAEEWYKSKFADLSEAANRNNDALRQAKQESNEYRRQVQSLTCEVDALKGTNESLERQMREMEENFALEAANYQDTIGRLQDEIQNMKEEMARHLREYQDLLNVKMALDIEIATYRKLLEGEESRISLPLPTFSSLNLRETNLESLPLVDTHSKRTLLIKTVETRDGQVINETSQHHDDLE
Sequence of AEA-DA lipid probe targets in Neuro2a cells (Mus musculus, UniProt Q60716) (Q60716 24-537): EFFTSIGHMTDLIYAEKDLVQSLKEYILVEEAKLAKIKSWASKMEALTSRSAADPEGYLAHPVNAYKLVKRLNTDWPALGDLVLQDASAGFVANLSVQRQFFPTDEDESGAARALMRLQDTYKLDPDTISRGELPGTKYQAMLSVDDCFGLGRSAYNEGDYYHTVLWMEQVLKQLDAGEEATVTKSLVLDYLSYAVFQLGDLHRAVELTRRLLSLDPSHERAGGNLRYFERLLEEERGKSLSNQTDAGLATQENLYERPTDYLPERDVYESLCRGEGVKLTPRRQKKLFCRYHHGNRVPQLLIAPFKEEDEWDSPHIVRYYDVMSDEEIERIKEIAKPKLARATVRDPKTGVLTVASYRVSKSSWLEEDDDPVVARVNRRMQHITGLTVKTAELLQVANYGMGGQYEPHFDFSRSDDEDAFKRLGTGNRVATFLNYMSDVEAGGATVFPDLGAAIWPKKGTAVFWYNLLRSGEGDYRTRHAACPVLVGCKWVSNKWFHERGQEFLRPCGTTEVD
Sequence of AEA-DA lipid probe targets in Neuro2a cells (Mus musculus, UniProt Q791T5) (Q791T5 whole entry): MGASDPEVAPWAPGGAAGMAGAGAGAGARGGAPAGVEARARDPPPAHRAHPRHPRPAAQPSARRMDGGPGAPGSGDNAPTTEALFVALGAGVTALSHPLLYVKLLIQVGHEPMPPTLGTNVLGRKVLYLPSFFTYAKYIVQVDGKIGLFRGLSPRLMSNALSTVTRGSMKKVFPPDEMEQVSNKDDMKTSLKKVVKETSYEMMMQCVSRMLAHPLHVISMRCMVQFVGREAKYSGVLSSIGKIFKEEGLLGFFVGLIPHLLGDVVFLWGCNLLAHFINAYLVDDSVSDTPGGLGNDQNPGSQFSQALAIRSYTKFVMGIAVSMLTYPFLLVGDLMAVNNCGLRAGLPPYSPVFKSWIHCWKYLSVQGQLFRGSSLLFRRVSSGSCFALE
Sequence of AEA-DA lipid probe targets in Neuro2a cells (Mus musculus, UniProt Q9D8N0) (Q9D8N0 whole entry): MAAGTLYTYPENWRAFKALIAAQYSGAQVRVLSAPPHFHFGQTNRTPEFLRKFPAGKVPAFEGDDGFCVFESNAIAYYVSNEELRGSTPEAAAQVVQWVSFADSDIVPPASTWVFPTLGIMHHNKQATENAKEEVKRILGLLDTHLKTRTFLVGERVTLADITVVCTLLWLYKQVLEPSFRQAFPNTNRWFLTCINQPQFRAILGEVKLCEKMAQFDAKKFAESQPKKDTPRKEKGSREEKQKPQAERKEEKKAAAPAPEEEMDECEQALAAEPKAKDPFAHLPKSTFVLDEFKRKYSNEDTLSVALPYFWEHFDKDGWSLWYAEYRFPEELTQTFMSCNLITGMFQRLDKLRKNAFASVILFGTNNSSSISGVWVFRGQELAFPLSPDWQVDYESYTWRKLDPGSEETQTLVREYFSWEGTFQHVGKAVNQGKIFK
Sequence of AEA-DA lipid probe targets in Neuro2a cells (Mus musculus, UniProt P62821) (P62821 whole entry): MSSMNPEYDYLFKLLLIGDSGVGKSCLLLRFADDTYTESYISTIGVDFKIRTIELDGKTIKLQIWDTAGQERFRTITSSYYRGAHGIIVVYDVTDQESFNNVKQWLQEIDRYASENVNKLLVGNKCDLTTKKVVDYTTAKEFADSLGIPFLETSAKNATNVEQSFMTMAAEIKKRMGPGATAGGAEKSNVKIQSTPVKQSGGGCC

O=C(/C=C/c1cccnc1)NCCCCC1CCN(C(=O)c2ccccc2)CC1 [FK-866, reference compound]
SILAC ratio Scarb2 ([1]; competitor 25 μM): 1.1
SILAC ratio Vim ([2]; competitor 25 μM): 1.2
SILAC ratio Ftl1 ([3]; competitor 25 μM): 1.6
SILAC ratio Rab1A ([4]; competitor 25 μM): 1.1
SILAC ratio P4ha2 ([5]; competitor 25 μM): 1.1
SILAC ratio Mtch1 ([6]; competitor 25 μM): 1.0
SILAC ratio Csnk1a1 ([7]; competitor 25 μM): 1.5
SILAC ratio, Hadha ([8]; competitor 25 μM): 6.2
SILAC ratio, Acp6 ([9]; competitor 25 μM): 1.2
SILAC ratio, Bri3bp ([10]; competitor 25 μM): 1.1
SILAC ratio Acad9 ([11]; competitor 25 μM): 1.2
SILAC ratio Eef1g ([12]; competitor 25 μM): 1.5
SILAC ratio, Tmem160 ([13]; competitor 25 μM): 1.2

CCCCC/C=C\C/C=C\C/C=C\C/C=C\CCCC(=O)NCCO [AEA, anandamide, reference compound]
SILAC ratio Scarb2 ([1]; competitor 200 μM): 1.5
SILAC ratio Vim ([2]; competitor 200 μM): 0.9
SILAC ratio Ftl1 ([3]; competitor 200 μM): 1.6
SILAC ratio Rab1A ([4]; competitor 200 μM): 1.2
SILAC ratio P4ha2 ([5]; competitor 200 μM): 1.0
SILAC ratio Mtch1 ([6]; competitor 200 μM): 1.4
SILAC ratio, Hadha ([8]; competitor 200 μM): 2.3
SILAC ratio, Acp6 ([9]; competitor 200 μM): 2.5
SILAC ratio, Bri3bp ([10]; competitor 200 μM): 2.0
SILAC ratio Eef1g ([12]; competitor 200 μM): 1.4

CN1CCN(C(=O)c2c(-c3ccccc3)c3cc([N+](=O)[O-])ccc3n2C)CC1 [KML110, (1-Methyl-5-nitro-3-phenyl-1H-indol-2-yl)(4-methylpiperazin-1-yl)methanone]
SILAC ratio Scarb2 ([1]; competitor 25 μM): 1.3
SILAC ratio Vim ([2]; competitor 25 μM): 1.2
SILAC ratio Ftl1 ([3]; competitor 25 μM): 0.9
SILAC ratio Rab1A ([4]; competitor 25 μM): 1.3
SILAC ratio P4ha2 ([5]; competitor 25 μM): 1.3
SILAC ratio Mtch1 ([6]; competitor 25 μM): 1.2
SILAC ratio Csnk1a1 ([7]; competitor 25 μM): 1.5
SILAC ratio, Hadha ([8]; competitor 25 μM): 2.0
SILAC ratio, Acp6 ([9]; competitor 25 μM): 1.6
SILAC ratio, Bri3bp ([10]; competitor 25 μM): 1.6
SILAC ratio Acad9 ([11]; competitor 25 μM): 1.7
SILAC ratio Eef1g ([12]; competitor 25 μM): 1.4
SILAC ratio, Tmem160 ([13]; competitor 25 μM): 1.3

C=CCN(C)CCCCCCOc1ccc(C(=O)c2ccc(Br)cc2)c(F)c1 [Ro 48-8071, reference compound]
SILAC ratio Scarb2 ([1]; competitor 25 μM): 1.1
SILAC ratio Vim ([2]; competitor 25 μM): 0.8
SILAC ratio Ftl1 ([3]; competitor 25 μM): 0.4
SILAC ratio Rab1A ([4]; competitor 25 μM): 1.0
SILAC ratio P4ha2 ([5]; competitor 25 μM): 1.0
SILAC ratio Mtch1 ([6]; competitor 25 μM): 0.9
SILAC ratio Csnk1a1 ([7]; competitor 25 μM): 0.9
SILAC ratio, Hadha ([8]; competitor 25 μM): 1.0
SILAC ratio, Acp6 ([9]; competitor 25 μM): 0.9
SILAC ratio, Bri3bp ([10]; competitor 25 μM): 1.1
SILAC ratio Acad9 ([11]; competitor 25 μM): 1.3
SILAC ratio Eef1g ([12]; competitor 25 μM): 0.9
SILAC ratio, Tmem160 ([13]; competitor 25 μM): 1.2

CN1CCN(C(=O)c2[nH]c3ccc([N+](=O)[O-])cc3c2-c2ccccc2)CC1 [MJN228, (4-Methylpiperazin-1-yl)(5-nitro-3-phenyl-1H-indol-2-yl)methanone]
SILAC ratio Scarb2 ([1]; competitor 10 μM): 1.3
SILAC ratio Scarb2 ([1]; competitor 25 μM): 1.5
SILAC ratio Scarb2 ([1]; competitor 50 μM): 1.7
SILAC ratio Scarb2 ([1]; competitor 100 μM): 1.9
SILAC ratio Vim ([2]; competitor 10 μM): 1.2
SILAC ratio Vim ([2]; competitor 25 μM): 1.2
SILAC ratio Vim ([2]; competitor 50 μM): 0.9
SILAC ratio Vim ([2]; competitor 100 μM): 1.0
SILAC ratio Ftl1 ([3]; competitor 100 μM): 1.0
SILAC ratio Rab1A ([4]; competitor 10 μM): 1.1
SILAC ratio Rab1A ([4]; competitor 25 μM): 1.3
SILAC ratio Rab1A ([4]; competitor 50 μM): 1.3
SILAC ratio Rab1A ([4]; competitor 100 μM): 1.3
SILAC ratio P4ha2 ([5]; competitor 10 μM): 1.2
SILAC ratio P4ha2 ([5]; competitor 25 μM): 1.3
SILAC ratio P4ha2 ([5]; competitor 50 μM): 1.0
SILAC ratio P4ha2 ([5]; competitor 100 μM): 1.0
SILAC ratio Mtch1 ([6]; competitor 10 μM): 1.1
SILAC ratio Mtch1 ([6]; competitor 25 μM): 1.2
SILAC ratio Mtch1 ([6]; competitor 50 μM): 1.0
SILAC ratio Mtch1 ([6]; competitor 100 μM): 1.2
SILAC ratio Csnk1a1 ([7]; competitor 25 μM): 1.4
SILAC ratio Csnk1a1 ([7]; competitor 100 μM): 1.3
SILAC ratio, Hadha ([8]; competitor 10 μM): 1.4
SILAC ratio, Hadha ([8]; competitor 25 μM): 1.7
SILAC ratio, Hadha ([8]; competitor 50 μM): 2.0
SILAC ratio, Hadha ([8]; competitor 100 μM): 2.9
SILAC ratio, Acp6 ([9]; competitor 10 μM): 1.5
SILAC ratio, Acp6 ([9]; competitor 25 μM): 1.5
SILAC ratio, Acp6 ([9]; competitor 50 μM): 1.8
SILAC ratio, Acp6 ([9]; competitor 100 μM): 2.3
SILAC ratio, Bri3bp ([10]; competitor 10 μM): 1.3
SILAC ratio, Bri3bp ([10]; competitor 25 μM): 1.5
SILAC ratio, Bri3bp ([10]; competitor 50 μM): 1.4
SILAC ratio, Bri3bp ([10]; competitor 100 μM): 2.1
SILAC ratio Acad9 ([11]; competitor 10 μM): 1.4
SILAC ratio Acad9 ([11]; competitor 25 μM): 1.2
SILAC ratio Acad9 ([11]; competitor 50 μM): 1.4
SILAC ratio Acad9 ([11]; competitor 100 μM): 1.4
SILAC ratio Eef1g ([12]; competitor 10 μM): 1.1
SILAC ratio Eef1g ([12]; competitor 25 μM): 1.1
SILAC ratio Eef1g ([12]; competitor 50 μM): 1.0
SILAC ratio Eef1g ([12]; competitor 100 μM): 1.3
SILAC ratio, Tmem160 ([13]; competitor 10 μM): 1.2
SILAC ratio, Tmem160 ([13]; competitor 25 μM): 1.5
SILAC ratio, Tmem160 ([13]; competitor 100 μM): 3.5
